Series [1] concerns the target T1, Macrophage migration inhibitory factor (Homo sapiens, UniProt P14174).
T1 sequence (P14174 whole entry): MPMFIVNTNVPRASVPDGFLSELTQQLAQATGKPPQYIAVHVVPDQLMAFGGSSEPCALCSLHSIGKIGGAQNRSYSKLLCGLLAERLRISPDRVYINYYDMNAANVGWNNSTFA
The series can be described thus: Inhibition of human cloned MIF tautomerase activity expressed in Escherichia coli assessed as conversion of L-dopachrome methyl ester to indolecarboxylic acid methyl ester measured for 20 secs.

The target in series [2] is Macrophage migration inhibitory factor (Mus musculus) (UniProt P34884). The series can be described thus: Inhibition of MIF-induced NF-kappaB nuclear translocation in mouse RAW264.7 cells at 100 uM pretreated for 30 mins before […] stimulation measured after 2 hrs by autoradiography. It counts as cell-based.
Chain of Macrophage migration inhibitory factor (Mus musculus) (P34884 2-115 limits assumed): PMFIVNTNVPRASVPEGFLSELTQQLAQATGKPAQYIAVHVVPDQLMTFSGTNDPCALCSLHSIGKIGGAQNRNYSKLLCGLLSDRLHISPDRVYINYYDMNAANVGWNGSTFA
The target is the same in series [3]. Nature of the series: Inhibition of MIF-induced NF-kappaB nuclear translocation in mouse RAW264.7 cells assessed as inhibition of iNOS expression at 50 uM pretreated for 30 mins measured after 24 hrs by fluorescence spectrophotometry. It counts as cell-based.
Series [4] can be described thus: Cytotoxicity against rat gastric mucosal cells assessed as cell viability at 200 uM after 24 hrs by MTT assay. It counts as cell-based, Gastric mucosa.
The test system of series [5] is RAW264.7. Nature of the series: Cytotoxicity against mouse RAW264.7 cells assessed as cell viability at 200 uM after 24 hrs by MTT assay. It counts as cell-based. As to conditions: raw264.7, 24 h.
Series [6] deals with Macrophage migration inhibitory factor (Mus musculus) (UniProt P34884). Nature of the series: Inhibition of MIF-induced NF-kappaB nuclear translocation in mouse RAW264.7 cells assessed as reduction in complex formation at 40 to 80 uM pretreated for 30 mins measured after 4 hrs by electrophoretic mobility shift assay. It counts as cell-based. For orientation: Mobility shift assays separate free from complexed probe on a gel.

Series [7] shares this target. The series can be described thus: Inhibition of MIF-induced nitric oxide production in mouse RAW264.7 cells at 50 uM pretreatment by Griess assay. It counts as cell-based. For orientation: Nitrite, measured by Griess reagent, commonly stands in for NO production.
Series [8] shares this target. The series can be described thus: Inhibition of MIF-induced NF-kappaB nuclear translocation in mouse RAW264.7 cells assessed as reduction in complex formation pretreated for 30 mins measured after 4 hrs by electrophoretic mobility shift assay. It counts as cell-based.

These results are taken from ChEMBL document CHEMBL1926678, “Synthesis and bio-evaluation of human macrophage migration inhibitory factor inhibitor to develop anti-inflammatory agent” (Bioorg Med Chem, 2011).

The source made the active and inactive calls. The calls are words filed in the database; no cut-off is given here.

For orientation: IC50 means the midpoint of a concentration-inhibition curve. `COC(=O)CC1CC(c2ccc(OC)cc2)=NO1` (configuration not stated): in series [1], the IC50 is 19.7 µM. As for `O=C(O)CC1CC(c2ccc(O)cc2)=NO1` (configuration not stated), the IC50 in series [1] worked out at 15.2 µM.

In general, inhibition refers to the share of the control response that was lost under treatment. As for `COC(=O)CC1CC(c2ccc(O)cc2)=NO1` (racemic), the inhibition in series [2] was determined as 70%. With `COC(=O)C1CC(c2ccc(OC)c(OC)c2)=NO1` (configuration not stated), the IC50 in series [1] stood at 25.2 µM. The same measure, in the same setting: under `COC(=O)CC1CC(c2ccc(OC(=O)CC3CC(c4ccc(OC)cc4)=NO3)cc2)=NO1` (configuration not stated) stands 37.2 µM. As for `COc1cc(C2=NOC(COc3ccc(C=O)cc3)C2)ccc1O` (configuration not stated), the inhibition entry in series [3] and in series [7] was “Active” in each case. Further, in series [1], the concentration for half-maximal inhibition (IC50) is 7.3 µM. The Activity entry in series [4] and in series [5] was “Non-toxic” throughout. Besides, the inhibition was 100% in series [6] and “Dose-dependent effect” in series [8]. Consider `COc1ccc(C2=NOC(CC(=O)O)C2)cc1` (configuration not stated), for which the IC50 in series [1] was determined as 16.7 µM. The same measure, in the same setting: the same measure for `COc1cc(C2=NOC(CC(=O)O)C2)ccc1O` (configuration not stated): 10.2 µM; for `CCCCOC(=O)CC1CC(c2ccc(OC)cc2)=NO1` (configuration not stated): 11.2 µM. On the same count and under the same terms, under `COc1ccc(C2=NOC(C(C)=O)C2)cc1OC` (configuration not stated) stands 35.4 µM; under `COc1ccc(C2=NOC(CC(=O)Oc3cc(C)ccc3C(C)C)C2)cc1` (configuration not stated), 55.3 µM.
